Experimental data as given in patent publication US8835644B2, “Broad spectrum benzothiophene-nitrothiazolide and other antimicrobials” (University of Virginia Patent Foundation, priority 2009, dated 2014).
Converted amounts (≈) assume the structure as drawn. Like-named read-outs stand apart in the source and are kept apart here.

Experiments:
H. pylori = assay: MIC testing by broth dilution, H. pylori; type: cell-based, Helicobacter pylori
Method in brief: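 Helicobacter pylori was tested using a standard broth dilution method in 96 well microplates, each well holding a standard dilution of the organism in 100 microliters of Brain Heart Infusion. Compounds started at 32 μg/ml in 200 microliters in the first well and were serially diluted from 32 to 0.06. Wells were read visually at 24 h, and the MIC was the well with no growth.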

MRSA = assay: MIC testing by broth dilution, MRSA; type: cell-based, Staphylococcus aureus
Method in brief: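 Values are broth-dilution MICs, defined as the well showing no growth on visual reading after 24 h; the tested range was 32 to 0.06 μg/ml, in organism-specific media (LB, Trypticase Soy, Brain Heart Infusion). The C. difficile entries come instead from anaerobic Kirby-Bauer disk zones, normalised to NTZ.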

S. epidermidis biofilm = S. epidermidis biofilm assay (activity tables); type: cell-based, Staphylococcus epidermidis
Protocol: Staphylococcal strains were cultured overnight in TSB at 37° C. with shaking, diluted in fresh medium to an OD600 of 0.01 and 200 W was dispensed into sterile flat bottom polystyrene 96 well microtiter plates (Costar 3596, Corning Inc.). […] Each compound and dilution was tested in triplicate. The plates were incubated overnight at 37° C. in a humidified incubator, without shaking and both growth and biofilm accumulation were determined at 16 h.
Following recording of turbidities, the culture medium was aspirated and the wells were washed three times with distilled water, blotted on paper towels, and fixed with 75% ethanol for 10 minutes.
To visualize biofilm material, 0.5% crystal violet was added to each well and after 5 minutes was removed and the wells washed three times with distilled water. Plates were read using a microplate reader at a wavelength of 570 nm. The dye was then extracted by adding 200 W of 95% ethanol, and the absorbance was read again at 570 nm. All assays were performed in triplicate and the mean and standard deviation determined. […]
(§1) Representative compounds of the invention were tested in a series of assays against a series of organisms as described above. […] The organisms tested include, C. difficile, H. pylori, C. jejuni, MRSA, S. epidermidis, and E. coli. S. epidermidis and E. coli were tested in the plank and biofilm assay. A disk diffusion assay was also used for C. difficile. Direct PFOR enzyme assays were also performed. All analogues and derivatives were not tested on every organism in every type of assay (the “-” in each table means that it was not tested).

C. jejuni = assay: MIC testing by broth dilution, C. jejuni; type: cell-based, Campylobacter jejuni
Method in brief: (§2)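 Media: LB (E. coli), Trypticase Soy (S. epidermidis), BHI (C. jejuni); plank cells. C. difficile on Wilkins Chalgrin agar, anaerobic Kirby-Bauer disks, zone vs NTZ zone ratio.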

E. coli biofilm = E. coli biofilm assay (activity tables); type: cell-based, Escherichia coli
Protocol: A quantitative biofilm assay was used to determine the effect of NTZ on biofilm formation (41). Strain 042 was grown overnight at 37° C. with shaking and inoculated 1:100 in 200 μl culture medium in Costar 96-well, flat-bottom, polystyrene microtiter plates containing appropriate concentrations of NTZ. Plates were incubated statically at 37° C. in a humidified incubator. At 24 h, bacterial growth was measured by either transferring […] aliquots to another microtiter plate to determine turbidity or by diluting 100 μl aliquots 1:100 in 9.9 ml PBS for quantitative plate counts on LB medium. Bacterial counts in triplicate are reported as cfu/ml. Biofilm was visualized following staining with 0.5% crystal violet (41) and the absorbance was read at 570 nm using a microplate reader (Molecular Dynamics). All experiments were in triplicate and reported as mean and standard deviation.
A standard broth dilution protocol was used in 96 well microplates containing a standard dilution of the microorganism to be tested in 100 microliters of the appropriate medium. Appropriate medium: E. coli, LB medium; Staphylococcus strains, Trypticase Soy; and for H. pylori and C. jejuni, Brain Heart Infusion. The compounds to be tested were set at 32 μg/ml in 200 microliters in well one and then serially diluted to provide a range from 32 to 0.06. The wells were scored visually at 24 h. The well where there was no growth was recorded as the MIC. Clostridium difficile was tested by agar diffusion and disk diffusion (Kirby Bower) methods under anaerobic conditions on Wilkins Chalgrin agar. In these assays, zone of inhibited growth was measured and compared by relative ratio to the zone recorded for NTZ.
as §1

E. coli = assay: MIC testing by broth dilution, E. coli plank; type: cell-based, Escherichia coli
Method in brief: as §2

S. epidermidis = assay: MIC testing by broth dilution, S. epidermidis plank; type: cell-based, Staphylococcus epidermidis
Method in brief: as §2

[1] = broth dilution, Brain Heart Infusion, 24 h, read-out: MIC (μM) H. pylori
[2] = broth dilution, Trypticase Soy, 24 h, read-out: MIC (μM) MRSA
[3] = broth dilution, Brain Heart Infusion, 24 h, read-out: MIC (μM) C. jejuni
[4] = biofilm; read-out: MIC (μM) E. coli Biofilm
[5] = broth dilution, LB medium, 24 h, read-out: MIC (μM) E. coli Plank
[6] = broth dilution, Trypticase Soy, 24 h, read-out: MIC (μM) S. epidermidis Plank

| SMILES | MIC (H. pylori; [1]) | MIC (MRSA; [2]) | MIC (μM) S. epidermidis Biofilm (S. epidermidis biofilm) | MIC (C. jejuni; [3]) | MIC (E. coli biofilm; [4]) | MIC (E. coli; [5]) | MIC (S. epidermidis; [6]) | further results |
| --- | --- | --- | --- | --- | --- | --- | --- | --- |
| O=C(Nc1ncc([N+](=O)[O-])s1)c1ncc([N+](=O)[O-])s1 [VPC161280] | – | – | – | – | – | – | – | MIC (H. pylori; Thiophene analogues table, read-out: MIC H. pylori): 6.6 µM (≈ 1.99 µg/mL); MIC (MRSA; Thiophene analogues table, read-out: MIC MRSA): 53.1 µM (≈ 16 µg/mL); MIC S. epidermidis Biofilm (S. epidermidis biofilm; Thiophene analogues table): 6.6 µM (≈ 1.99 µg/mL); MIC (C. jejuni; Thiophene analogues table, read-out: MIC C. jejuni): 13.3 µM (≈ 4.01 µg/mL); MIC (E. coli biofilm; biofilm; Thiophene analogues table; read-out: MIC E. coli Biofilm): 3.3 µM (≈ 0.994 µg/mL); MIC (E. coli; planktonic, Thiophene analogues table, read-out: MIC E. coli Plank): 39.8 µM (≈ 12 µg/mL); MIC (S. epidermidis; planktonic, Thiophene analogues table, read-out: MIC S. epidermidis Plank): 5.0 µM (≈ 1.51 µg/mL) |
| CC(=O)Oc1cc(C#N)ccc1C(=O)Nc1ncc([N+](=O)[O-])s1 [VPC161076] | 24.1 µM (≈ 8.01 µg/mL) | 96.3 µM (≈ 32 µg/mL) | 48.2 µM (≈ 16 µg/mL) | 96.3 µM (≈ 32 µg/mL) | 96.3 µM (≈ 32 µg/mL) | 96.3 µM (≈ 32 µg/mL) | 96.3 µM (≈ 32 µg/mL) | – |
| O=C(Nc1ncc([N+](=O)[O-])s1)c1ccc([N+](=O)[O-])cc1 [VPC161170] | 1.3 µM (≈ 0.383 µg/mL) | 20.4 µM (≈ 6 µg/mL) | 3.4 µM (≈ 1 µg/mL) | 13.6 µM (≈ 4 µg/mL) | 108.8 µM (≈ 32 µg/mL) | 81.6 µM (≈ 24 µg/mL) | 10.2 µM (≈ 3 µg/mL) | – |
| NCCCC[C@H](N)C(=O)Nc1ncc([N+](=O)[O-])s1 [VPC16a1032] | 69.3 µM (≈ 18.9 µg/mL) | 92.4 µM (≈ 25.3 µg/mL) | 92.4 µM (≈ 25.3 µg/mL) | 92.4 µM (≈ 25.3 µg/mL) | 0.1 µM (≈ 0.0273 µg/mL) | 92.4 µM (≈ 25.3 µg/mL) | 92.4 µM (≈ 25.3 µg/mL) | – |
| O=C(CCCC(=O)Nc1ncc([N+](=O)[O-])s1)Nc1ncc([N+](=O)[O-])s1 [VPC161276, N^1,N^5-Bis(5-nitrothiazol-2-yl)glutaramide] | – | – | 1.3 µM (≈ 0.502 µg/mL) | – | – | – | – | MIC (H. pylori; Helicobacter pylori, 24 h, read-out: MIC (μM) H. pylori): 5.2 µM (≈ 2.01 µg/mL); MIC (MRSA; Staphylococcus aureus, MRSA, 24 h, read-out: MIC (μM) MRSA): 82.8 µM (≈ 32 µg/mL); MIC (C. jejuni; Campylobacter jejuni, 24 h, read-out: MIC (μM) C. jejuni): 31.1 µM (≈ 12 µg/mL); MIC (E. coli biofilm; Escherichia coli, read-out: MIC (μM) E. coli Biofilm): 82.8 µM (≈ 32 µg/mL); MIC (E. coli; Escherichia coli, 24 h, read-out: MIC (μM) E. coli Plank): 82.8 µM (≈ 32 µg/mL); MIC (S. epidermidis; Staphylococcus epidermidis, 24 h, read-out: MIC (μM) S. epidermidis Plank): 82.8 µM (≈ 32 µg/mL) |
| O=C(Nc1ncc([N+](=O)[O-])s1)c1cccnc1 [VPC161176] | 4.0 µM (≈ 1 µg/mL) | 127.9 µM (≈ 32 µg/mL) | 63.9 µM (≈ 16 µg/mL) | 71.9 µM (≈ 18 µg/mL) | 127.9 µM (≈ 32 µg/mL) | 127.9 µM (≈ 32 µg/mL) | 127.9 µM (≈ 32 µg/mL) | – |
| O=C(Nc1ccc(F)cc1)Nc1ncc([N+](=O)[O-])s1 [VPC161267] | – | – | 28.3 µM (≈ 7.99 µg/mL) | – | – | – | – | MIC (H. pylori; Helicobacter pylori, broth dilution, Brain Heart Infusion, 24 h, read-out: MIC (μM) H. pylori): 0.9 µM (≈ 0.254 µg/mL); MIC (MRSA; Staphylococcus aureus, MRSA, broth dilution, Trypticase Soy, 24 h, read-out: MIC (μM) MRSA): 56.7 µM (≈ 16 µg/mL); MIC (C. jejuni; Campylobacter jejuni, broth dilution, Brain Heart Infusion, 24 h, read-out: MIC (μM) C. jejuni): 21.3 µM (≈ 6.01 µg/mL); MIC (E. coli biofilm; Escherichia coli; read-out: MIC (μM) E. coli Biofilm): 56.7 µM (≈ 16 µg/mL); MIC (E. coli; Escherichia coli, broth dilution, LB medium, 24 h, read-out: MIC (μM) E. coli Plank): 113 µM (≈ 32 µg/mL); MIC (S. epidermidis; Staphylococcus epidermidis, broth dilution, Trypticase Soy, 24 h, read-out: MIC (μM) S. epidermidis Plank): 28.3 µM (≈ 7.99 µg/mL) |
| CCCCCCCCCC(=O)Nc1ncc([N+](=O)[O-])s1 [VPC16b1043] | 1.2 µM (≈ 0.359 µg/mL) | 106.9 µM (≈ 32 µg/mL) | 1.7 µM (≈ 0.509 µg/mL) | 3.9 µM (≈ 1.17 µg/mL) | 106.9 µM (≈ 32 µg/mL) | 106.9 µM (≈ 32 µg/mL) | 106.9 µM (≈ 32 µg/mL) | – |
